US8197860B2, “Method for enhancing nutrient absorption with astragalosides” (Nuliv Holding Inc., priority 2005, dated 2012)

Key:
Assay type in all cases: cell-based, human
Caco2 cells [1] = test: Glucose uptake assay; design: key to * (regulatory effect on glucose uptake): ↑: the arrows that point up represent the enhancing effect on the glucose uptake; conditions: for Uptake rate (glucose): 48 hours, 25 mM glucose
Experimental: To evaluate the effect of the isolated astragaloside compound on the uptake of nutrient substances across the intestinal lumen, Caco-2 cells were grown on permeable filter as an experimental model. Caco2 cells originate from human colonic adenocarcinoma and spontaneously differentiate into an enterocyte-like phenotype after two weeks. The Caco-2 cell line, derived from a human colorectal carcinoma, has been used as an in vitro model system for studying drug absorption in gastrointestinal tract. These cells form monolayers with well-developed tight-junctions, and have been evaluated in details as an in vitro model to study both transcellular transport of nutrients and drugs in intestinal lumen.
Caco-2 cells were obtained from the ATCC (American Type Culture Collection). The cells were maintained in Dulbecco's modified Eagle medium (DMEM) containing 4.5 g/L glucose and 25 mM Hepes, supplemented with 10% fetal calf serum, 100 U/mL penicillin G and […]. The medium was changed every second day. The cells were routinely checked for Mycoplasma in monthly intervals. Caco-2 cells were cultured on semi-permeable membranes to differentiate into a highly functionalized epithelial barrier with remarkable morphological and biochemical similarity to the small intestinal columnar epithelium. The Caco-2 cell monolayers could therefore be used to study the membrane transport properties of many compounds. To trypsinize the cells, the culture dish was washed once with phosphate-buffered saline (PBS) followed by adding trypsine-EDTA for 10 minutes. The trypsinized cells were separated and filtered into single cells using a 35-μm strainer cap (Falcon 2235) before being seeded for further experiments.
Caco-2 cells (5×10^4) were seeded in a 48-well plate and maintained in culture medium (DMEM with 10% FBS, 1% nonessential amino acids, L-glutamine, penicillin G (100 U/mL), streptomycin (10 μg/mL), and amphotericin B (2.5 μg/mL) in a 37° C. incubator for 10 days for the cells to differentiate. The culture medium was changed once every two days. The cells were then washed with PBS before replenishing with the culture medium containing 5% FBS and various astragalosides at the indicated concentrations (0.01, 0.1 and 1 μM) for 48 hours. The Caco2 cells were washed out of remaining glucose with PBS and replaced in the glucose buffer (80 mM NaCl, 100 mM mannitol, 20 mM Tris-HCl, pH 7.4, 3 mM K2HPO4, 1 mM CaCl2, 1 mg/mL BSA) for 1 hour. Glucose uptake was initiated by replacing the glucose buffer with 0.2 ml of glucose buffer containing 2 μCi/mL of ^14C-glucose and unlabeled cold glucose to give a final glucose concentration of 25 mM. Glucose uptake was stopped by removing the glucose buffer and washing with PBS at designated time intervals. The cells were lysed in 0.2 mL of 0.2 N NaOH, and 20 μL of the cell lysate were transferred to the filter-bottomed UniFilter plates (Perkin-Elmer, Wellesley, Mass., USA) and dried in a vacuum oven at 37° C. The bottom of the UniFilter plate was sealed and 25 μL of the counting solution were added into each well. Adhesive plate sealers were used in place of the lids and radioactivity of each sample was counted using the microplate liquid scintillation counter (TopCount, Packard NXT, Packard BioScience Company, Meriden, Conn., USA). The amount of glucose accumulated in the cells was calculated and normalized to protein concentration, and uptake rate was expressed as nanomoles of glucose per minutes per milligram of cell protein (nmol/min/mg). Protein concentration was determined by a standard Bicinchoninic acid (BCA) protein assay. Nonspecific glucose uptake was measured by adding 2 μCi of L-[^14C]-glucose and subtracting from each determination to obtain specific glucose uptake.

Caco-2 cell monolayer [2] = test: Arginine absorption assay (transport across Caco-2 cell monolayer); design: key to * (regulatory effect on arginine transport): ↑: the arrows that point up represent the enhancing effect on the arginine transport; conditions: for Transport rate (arginine): 10 mM L-arginine apical
Method in brief: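 Differentiated Caco-2 monolayers on transwells, preincubated 1 h at 37° C in pH 7.4 Hepes-buffered saline with glucose. Apical 10 mM L-arginine spiked with L-[3H]-arginine; basolateral radioactivity sampled over time. Transport corrected by [3H]-mannitol, expressed as nmol/min.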

Caco-2 cell monolayer [3] = test: Tryptophan absorption assay (transport across Caco-2 cell monolayer); design: key to * (regulatory effect on tryptophan transport): ↑: the arrows that point up represent the enhancing effect on the tryptophan transport
Method in brief: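 Differentiated Caco-2 monolayers on transwell filters were preincubated for 1 h at 37 °C in choline chloride-based buffer at pH 7.4. Transport began when apical tryptophan was added. Basolateral samples taken over time were counted, corrected for nonspecific flux using [3H]-mannitol, and expressed as nmol/min.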

Caco2 cells [4] = test: Folate uptake assay; design: key to * (regulatory effect on folate uptake): ↑: the arrows that point up represent the enhancing effect on folate uptake
Method in brief: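 Caco-2 cells differentiated 10 days, then pretreated 2 days with 0.1 μM isolated astragalosides in 5% FBS medium. Preincubated 1 h in HBSS-based folate uptake buffer pH 6.0; uptake started with 2 μCi/mL ³H-folic acid plus unlabeled folate.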

SMILES: CC(=O)OC1C(O)COC(OC2CCC34CC35CCC3(C)C(C6(C)CCC(C(C)(C)O)O6)C(O)CC3(C)C5CC(OC3OC(CO)C(O)C(O)C3O)C4C2(C)C)C1OC(C)=O (centres unmarked) [AS1, astragaloside I]
- Regulatory effects on the glucose uptake of the Caco2 cells (Caco2 cells [1]; Table 2 summary): had regulatory effects on the glucose uptake
- * (regulatory effect on glucose uptake) (Caco2 cells [1]; compound 0.01 μM): ↑
- Percentage (glucose uptake, control = 100) (Caco2 cells [1]; compound 0.01 μM): 146.75%
- Uptake rate (glucose) (Caco2 cells [1]; compound 0.01 μM): 9.3510 ± 1.1370 nmol/mg/min
- * (regulatory effect on glucose uptake) (Caco2 cells [1]; compound 0.1 μM): ↑
- Percentage (glucose uptake, control = 100) (Caco2 cells [1]; compound 0.1 μM): 122.82%
- Uptake rate (glucose) (Caco2 cells [1]; compound 0.1 μM): 7.8260 ± 1.7510 nmol/mg/min
- Percentage (glucose uptake, control = 100) (Caco2 cells [1]; compound 1 μM): 98.52%
- Uptake rate (glucose) (Caco2 cells [1]; compound 1 μM): 6.2780 ± 1.9930 nmol/mg/min
- Regulatory effects on the arginine transport across the Caco2 cell monolayer (Caco-2 cell monolayer [2]; Table 3 summary): had regulatory effects on the arginine transport
- * (regulatory effect on arginine transport) (Caco-2 cell monolayer [2]; compound 0.001 μM): ↑
- Percentage (arginine transport, control = 100) (Caco-2 cell monolayer [2]; compound 0.001 μM): 133.37%
- Transport rate (arginine) (Caco-2 cell monolayer [2]; compound 0.001 μM): 14.2554 ± 0.5851 nmol/min
- * (regulatory effect on arginine transport) (Caco-2 cell monolayer [2]; compound 0.01 μM): ↑
- Percentage (arginine transport, control = 100) (Caco-2 cell monolayer [2]; compound 0.01 μM): 151.91%
- Transport rate (arginine) (Caco-2 cell monolayer [2]; compound 0.01 μM): 16.2324 ± 0.7215 nmol/min
- * (regulatory effect on arginine transport) (Caco-2 cell monolayer [2]; compound 0.1 μM): ↑
- Percentage (arginine transport, control = 100) (Caco-2 cell monolayer [2]; compound 0.1 μM): 147.21%
- Transport rate (arginine) (Caco-2 cell monolayer [2]; compound 0.1 μM): 15.7300 ± 1.1250 nmol/min
- Arginine transport rate (Caco-2 cell monolayer [2]; concentration from 0.001 μM to 0.1 μM): increased
- Regulatory effects on the tryptophan transport across the Caco2 cell monolayer (Caco-2 cell monolayer [3]; Table 4 summary): had regulatory effects on the tryptophan transport
- * (regulatory effect on tryptophan transport) (Caco-2 cell monolayer [3]; compound 0.01 μM): ↑
- Percentage (tryptophan transport, control = 100) (Caco-2 cell monolayer [3]; compound 0.01 μM): 248.49%
- Transport rate (tryptophan) (Caco-2 cell monolayer [3]; compound 0.01 μM): 22.220 ± 0.8695 nmol/min
- * (regulatory effect on tryptophan transport) (Caco-2 cell monolayer [3]; compound 0.1 μM): ↑
- Percentage (tryptophan transport, control = 100) (Caco-2 cell monolayer [3]; compound 0.1 μM): 258.67%
- Transport rate (tryptophan) (Caco-2 cell monolayer [3]; compound 0.1 μM): 23.130 ± 1.3120 nmol/min
- * (regulatory effect on tryptophan transport) (Caco-2 cell monolayer [3]; compound 1 μM): ↑
- Percentage (tryptophan transport, control = 100) (Caco-2 cell monolayer [3]; compound 1 μM): 178.93%
- Transport rate (tryptophan) (Caco-2 cell monolayer [3]; compound 1 μM): 16.000 ± 1.3190 nmol/min
- Tryptophan transport rate (Caco-2 cell monolayer [3]; concentration from 0.01 μM to 0.1 mM): increased
- Folate uptake versus control group (Caco2 cells [4]; 0.1 μM, FIG. 4): increased folate uptake
- * (regulatory effect on folate uptake) (Caco2 cells [4]; compound 0.1 μM): ↑
- Percentage (folate uptake vs own control) (Caco2 cells [4]; compound 0.1 μM): 150.00%
- Uptake rate (folate) (Caco2 cells [4]; compound 0.1 μM, 2 days, 5 μM folate, pH 6.0): 79.710 ± 3.0410 pmol/mg/min
